biological target: CDK2 (UniProt P24941); test: Enzyme Assay; conditions: not given

Row | SMILES | Ki [nM]
1 | Nc1nc(Nc2ccc(S(N)(=O)=O)cc2)sc1-c1nc(-c2cc3ccccc3s2)cs1 | 3200
2 | COc1cc(O)c(Br)c(-c2csc(-c3sc(Nc4cc(OC)c(OC)c(OC)c4)nc3N)n2)c1 | 710
3 | Nc1nc(Nc2ccc(S(N)(=O)=O)cc2)sc1-c1nc(C(=O)Nc2ccccc2)cs1 | 58

same assay, conditions: concentration not given here

Row | SMILES | inhibition [%]
4 | COc1cc(Nc2nc(N)c(-c3nc(-c4ccc(-c5ccc(Cl)cc5Cl)o4)cs3)s2)cc(OC)c1OC | 12.4
5 | COc1cc(Nc2nc(N)c(-c3nc(-c4ccc(OC(=O)c5ccccc5)cc4)cs3)s2)cc(OC)c1OC | 14.6
6 | COc1cc(Nc2nc(N)c(-c3nc(-c4ccccc4OC(C)=O)cs3)s2)cc(OC)c1OC | 1.6
7 | COc1cc(Nc2nc(N)c(C3=NC(c4cc(F)c(C)c(Cl)c4)CS3)s2)cc(OC)c1OC (stereo unspecified) | -7.5
8 | COc1cc(Nc2nc(N)c(-c3nc(-c4ccc(F)cc4)cs3)s2)cc(OC)c1OC | 35
9 | COc1cc(Nc2nc(N)c(-c3nc(-c4ccc(C(F)(F)F)cc4)cs3)s2)cc(OC)c1OC | 13.9
10 | CC(C)c1ccc(Nc2nc(N)c(-c3nc(-c4ccc5oc6ccccc6c5c4)cs3)s2)cc1 | -4.3
11 | COc1cc(Nc2nc(N)c(-c3nc(-c4ccc5c(c4)CCC(=O)N5)cs3)s2)cc(OC)c1OC | -7.8
12 | COc1cc(Nc2nc(N)c(-c3nc(-c4ccc(Cl)c([N+](=O)[O-])c4)cs3)s2)cc(OC)c1OC | -4.8
13 | COC(=O)c1ccc(-c2csc(-c3sc(Nc4cc(OC)c(OC)c(OC)c4)nc3N)n2)cc1 | 0
14 | COc1cc(Nc2nc(N)c(-c3nc(-c4cc(C)c(O)c(C)c4)cs3)s2)cc(OC)c1OC | 28.4
15 | COc1cc(Nc2nc(N)c(-c3nc(-c4cccc(OC(=O)c5ccccc5)c4)cs3)s2)cc(OC)c1OC | -12.3
16 | COc1cc(Nc2nc(N)c(-c3nc(-c4cc(C(C)(C)C)c(O)c(C(C)(C)C)c4)cs3)s2)cc(OC)c1OC | 5.3
17 | Nc1nc(Nc2ccc(S(N)(=O)=O)cc2)sc1-c1nc(-c2ccc(F)cc2)cs1 | 27
18 | COc1cc(Nc2nc(N)c(-c3nc(-c4ccccc4[N+](=O)[O-])cs3)s2)cc(OC)c1OC | 1.9
19 | COc1cc(Nc2nc(N)c(-c3nc(-c4ccc[nH]4)cs3)s2)cc(OC)c1OC | 14.3
20 | COc1ccccc1-c1csc(-c2sc(Nc3ccc(N(C)C)cc3)nc2N)n1 | -6.4
21 | Cc1c(-c2csc(-c3sc(Nc4ccc(C(C)C)cc4)nc3N)n2)sc2ccc(Cl)cc12 | 34.8
22 | COc1cc(Nc2nc(N)c(-c3nc(-c4sc5ccccc5c4C)cs3)s2)cc(OC)c1OC | 23.1
23 | COc1ccc(-c2csc(-c3sc(Nc4cc(OC)c(OC)c(OC)c4)nc3N)n2)c(OC)c1 | 4.9
24 | COc1cc(Nc2nc(N)c(-c3nc(-c4cc(Br)c(Cl)s4)cs3)s2)cc(OC)c1OC | -0.2

Row | SMILES | inhibition [%]
25 | Nc1nc(Nc2ccc(S(N)(=O)=O)cc2)sc1-c1nc(-c2ccc(F)cc2F)cs1 | 57
26 | CCOC(=O)c1nc(-c2sc(Nc3ccc(S(N)(=O)=O)cc3)nc2N)sc1Cc1ccccc1 | 36
27 | CC(C)c1ccc(Nc2nc(N)c(-c3nc(-c4ccc(OC(=O)c5ccccc5)cc4)cs3)s2)cc1 | 7.3
28 | CCCCCc1ccc(-c2csc(-c3sc(Nc4ccc(N(C)C)cc4)nc3N)n2)cc1 | -6
29 | COc1cc(Nc2nc(N)c(-c3nc(-c4ccc5oc6ccccc6c5c4)cs3)s2)cc(OC)c1OC | 19
30 | COc1cc(Nc2nc(N)c(-c3nc(-c4sc5ccc(Cl)cc5c4C)cs3)s2)cc(OC)c1OC | 9.65
31 | COc1cc(Nc2nc(N)c(-c3nc(-c4ccc([N+](=O)[O-])cc4)cs3)s2)cc(OC)c1OC | -14.4
32 | COc1cc(Nc2nc(N)c(-c3nc(-c4csc5ccccc45)cs3)s2)cc(OC)c1OC | 9.1
33 | COc1cc(Nc2nc(N)c(-c3nc(-c4ccc(C)cc4C)cs3)s2)cc(OC)c1OC | 1.2
34 | CCOC(=O)c1cc(-c2csc(-c3sc(Nc4cc(OC)c(OC)c(OC)c4)nc3N)n2)on1 | 23.2
35 | COc1cc(Nc2nc(N)c(-c3nc(-c4c(C)c(C)c(C)c(C)c4C)cs3)s2)cc(OC)c1OC | 19.8
36 | COc1cc(Nc2nc(N)c(-c3nc(-c4cccc([N+](=O)[O-])c4)cs3)s2)cc(OC)c1OC | 6.6
37 | COc1cc(Nc2nc(N)c(-c3nc(-c4cc5cc(Cl)ccc5o4)cs3)s2)cc(OC)c1OC | -6
38 | COc1cc(Nc2nc(N)c(-c3nc(-c4ccc5ccccc5c4)cs3)s2)cc(OC)c1OC | 11.6
39 | COc1cc(Nc2nc(N)c(-c3nc(-c4ccc(Cl)cc4Cl)cs3)s2)cc(OC)c1OC | 3.8
40 | COc1cc(Nc2nc(N)c(-c3nc(-c4ccc(Cl)c(Cl)c4)cs3)s2)cc(OC)c1OC | 7.3
41 | Cc1c(-c2csc(-c3sc(Nc4ccc(S(N)(=O)=O)cc4)nc3N)n2)sc2ccc(Cl)cc12 | 61.5
42 | COc1ccc(OC)c(-c2csc(-c3sc(Nc4cc(OC)c(OC)c(OC)c4)nc3N)n2)c1 | 12.2
43 | CCCCCc1ccc(-c2csc(-c3sc(Nc4cc(OC)c(OC)c(OC)c4)nc3N)n2)cc1 | 11.3
44 | COc1cc(Nc2nc(N)c(-c3nc(-c4cc(-c5ccc(Cl)c(Cl)c5)no4)cs3)s2)cc(OC)c1OC | 17.5
45 | COc1cc(Nc2nc(N)c(-c3nc(-c4ccc(Cl)cc4)cs3)s2)cc(OC)c1OC | 0.1

Row | SMILES | inhibition [%]
46 | COc1ccc(-c2csc(-c3sc(Nc4ccc(C(C)C)cc4)nc3N)n2)c(OC)c1 | -22.6
47 | CN(C)c1ccc(Nc2nc(N)c(-c3nc(-c4ccc5c(c4)CCC(=O)N5)cs3)s2)cc1 | -2.5
48 | CN(C)c1ccc(Nc2nc(N)c(-c3nc(-c4ccccc4[N+](=O)[O-])cs3)s2)cc1 | 8.3
49 | CCOC(=O)c1ccccc1-c1csc(-c2sc(Nc3cc(OC)c(OC)c(OC)c3)nc2N)n1 | 4.4
50 | CC(C)c1ccc(Nc2nc(N)c(-c3nc(-c4ccccc4)cs3)s2)cc1 | 20.9
51 | COc1cc(Nc2nc(N)c(-c3nc(-c4cc(C(=O)C(Cl)(Cl)Cl)n(C)c4)cs3)s2)cc(OC)c1OC | 3.9
52 | CC(C)c1ccc(Nc2nc(N)c(-c3nc(-c4ccc(Cl)cc4Cl)cs3)s2)cc1 | 15.1
53 | COc1cc(Nc2nc(N)c(-c3nc(-c4ccc(F)c(F)c4)cs3)s2)cc(OC)c1OC | -5
54 | COc1cc(Nc2nc(N)c(-c3nc(-c4ccc(C#N)cc4)cs3)s2)cc(OC)c1OC | 15.6
55 | COc1cc(Nc2nc(N)c(-c3nc(-c4ccc(-c5ccccc5)cc4)cs3)s2)cc(OC)c1OC | 20.4
56 | COc1cc(Nc2nc(N)c(-c3nc(-c4ccc(O)cc4)cs3)s2)cc(OC)c1OC | 3
57 | Nc1nc(Nc2ccc(S(N)(=O)=O)cc2)sc1-c1nc(-c2cccc([N+](=O)[O-])c2)cs1 | 17.8
58 | COc1cc(Nc2nc(N)c(-c3noc(-c4ccsc4)n3)s2)cc(OC)c1OC | 21
59 | COc1cc(Nc2nc(N)c(-c3nc(-c4ccc5c(c4)C(C)(C)CCC5(C)C)cs3)s2)cc(OC)c1OC | 4.2
60 | Cc1c(-c2csc(-c3sc(Nc4ccc(N(C)C)cc4)nc3N)n2)sc2ccc(Cl)cc12 | 27.2
61 | Nc1nc(Nc2ccc(S(N)(=O)=O)cc2)sc1-c1nc(-c2ccc(Cl)cc2Cl)cs1 | 36
62 | COc1cc(Nc2nc(N)c(-c3nc(-c4ccccc4OC(=O)c4ccccc4)cs3)s2)cc(OC)c1OC | 4.6
63 | COc1cc(Nc2nc(N)c(-c3nc(-c4cc(-c5ccccc5)no4)cs3)s2)cc(OC)c1OC | 11.2
64 | Nc1nc(Nc2ccc(S(N)(=O)=O)cc2)sc1C1=NC2(O)OCCC2S1 (stereo unspecified) | 29
65 | COc1cc(Nc2nc(N)c(-c3nc(-c4c(-c5ccccc5)noc4C)cs3)s2)cc(OC)c1OC | 13.6
66 | COc1cc(Nc2nc(N)c(-c3nc(-c4ccc(CC(=O)O)s4)cs3)s2)cc(OC)c1OC | 26.7

Row | SMILES | inhibition [%]
67 | COc1cc(Nc2nc(N)c(-c3nc(-c4ccc5c(c4)OCCO5)cs3)s2)cc(OC)c1OC | 5.4
68 | COc1cc(Nc2nc(N)c(-c3nc(-c4cccc(Br)c4)cs3)s2)cc(OC)c1OC | 15.6
69 | COc1cc(Nc2nc(N)c(-c3nc(-c4ccc(O)c(O)c4)cs3)s2)cc(OC)c1OC | -10.3
70 | COc1cc(Nc2nc(N)c(-c3nc(-c4cc(C)sc4C)cs3)s2)cc(OC)c1OC | 7.3
71 | CCCCCc1ccc(-c2csc(-c3sc(Nc4ccc(S(N)(=O)=O)cc4)nc3N)n2)cc1 | -9.9
72 | Nc1nc(Nc2ccc(S(N)(=O)=O)cc2)sc1-c1nc(-c2ccc(-c3ccccc3)cc2)cs1 | 0
73 | COc1cc(Nc2nc(N)c(-c3nc(-c4c(Cl)cc(C(F)(F)F)cc4Cl)cs3)s2)cc(OC)c1OC | -6
74 | COc1cc(Nc2nc(N)c(-c3nc(-c4ccc(C)cc4)cs3)s2)cc(OC)c1OC | -2.1
75 | COc1cc(Nc2nc(N)c(-c3nc(-c4c(Cl)c(Cl)nc(Cl)c4Cl)cs3)s2)cc(OC)c1OC | 10.3
76 | N#Cc1ccc(-c2csc(-c3sc(Nc4ccc(S(N)(=O)=O)cc4)nc3N)n2)cc1 | 13.3
77 | COc1ccccc1-c1csc(-c2sc(Nc3cc(OC)c(OC)c(OC)c3)nc2N)n1 | -3.5
78 | CCc1cc2c(cc1-c1csc(-c3sc(Nc4cc(OC)c(OC)c(OC)c4)nc3N)n1)C(C)(C)CCC2(C)C | 13.8
79 | Cc1onc(-c2ccccc2)c1-c1csc(-c2sc(Nc3ccc(S(N)(=O)=O)cc3)nc2N)n1 | -4.5
80 | CN(C)c1ccc(Nc2nc(N)c(-c3nc(-c4cccc(OC(=O)c5ccccc5)c4)cs3)s2)cc1 | 27.1
81 | COc1cccc(-c2csc(-c3sc(Nc4cc(OC)c(OC)c(OC)c4)nc3N)n2)c1 | -0.4
82 | COc1ccc2nc(-c3ccccc3)c(-c3csc(-c4sc(Nc5cc(OC)c(OC)c(OC)c5)nc4N)n3)cc2c1 | -2.7
83 | Cc1c(F)cc(-c2csc(-c3sc(Nc4ccc(S(N)(=O)=O)cc4)nc3N)n2)cc1Cl | 25
84 | CCN(CC)c1ccc(-c2csc(-c3sc(Nc4cc(OC)c(OC)c(OC)c4)nc3N)n2)cc1 | 6.3
85 | COc1cc(OC)c(-c2csc(-c3sc(Nc4cc(OC)c(OC)c(OC)c4)nc3N)n2)c(O)c1Cl | 11.8
86 | COc1cc(Nc2nc(N)c(-c3nc(-c4ccc(Cl)c(C)c4)cs3)s2)cc(OC)c1OC | -4.4
